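Cultured in 96-well plates, cells were exposed to test compound for 48 hours across five concentrations. GI50: concentration for 50% inhibition of growth. At the TGI there is no net growth.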

In this experiment the test system is MDA-MB-468 breast. Briefly: NCI-60 cell line screen, 48 h.

`CCCCCCCCO/N=C\c1c2c(O)c3c(O)c(C)c4c(c3c1O)C(=O)C(C)(O/C=C\C(OC)C(C)C(OC(C)=O)C(C)C(O)C(C)C(O)C(C)/C=C\C=C(\C)C(=O)N2)O4` (stereo not drawn): the GI50 was 1.37 µM and the TGI came to 5.11 µM.
As to `Cc1cc(S(=O)(=O)/N=C(\N)n2nc(C)c(C)c2C)c(SCc2ccccc2)cc1Cl`, the GI50 was 12.1 µM and the TGI was determined as 92.4 µM.
Consider `C/C(=C\c1ccn(-c2ccc(N)cc2C(F)(F)F)n1)[C@@H]1C[C@@H]2O[C@]2(C)CCC[C@H](C)[C@H](O)[C@@H](C)C(=O)C(C)(C)[C@@H](O)CC(=O)O1`, for which the GI50 is 0.289 µM and the TGI stood at 0.873 µM.
Regarding `Nc1nc(N)c2c(n1)NC(c1ccc(C(F)(F)F)cc1)CC(c1ccc(Nc3nc(NCCO)nc(Nc4ccc(Cl)cc4)n3)cc1)=N2` (stereo not drawn), the GI50 is 1.58 µM and the TGI is 3.21 µM.

The record behind these values is PubChem BioAssay (NCI).
